Measurements as given in patent US11919905B2, “Substituted benzo[f]imidazo[1,2-a][1,4]diazepines as anesthetics” (HANGZHOU ADAMERCK PHARMLABS INC., priority 2017, dated 2024).

How the values were obtained:
ICR mice [1] = assay: Disappearance of righting reflex in mice induced by drugs (single i.v. bolus); assay type: in vivo; conditions: 100 mg/kg single bolus via tail vein, male ICR mice
Protocol: After ICR mice (male, 18-25 g) were fast injected with the same dose (100 mg/kg) of the test drug in a single bolus via the tail vein, the incubation period and the duration of disappearance of the righting reflex in mice were recorded. Wherein, the incubation period refers to the time from the start of administration to the disappearance of the animal's righting reflex, and the duration refers to the time from the disappearance of the righting reflex to the recovery.

ICR mice [2] = assay: Effective dose and lethal dose of intravenous administration in mice; assay type: in vivo; conditions: single bolus via tail vein, male ICR mice; for minimal effective dose: Mus musculus, iv, read-out: Effective dose (lowest dose causing the righting reflex to disappear)
Protocol: ICR mice (males, 18-25 g) were randomly grouped and were fast given a single bolus of different doses of test drug via the tail vein, and the lowest dose causing the righting reflex to disappear (effective dose) and the dose causing animal death (lethal dose) were recorded, and the treatment windows (lethal dose/effective dose) were calculated.

| Structure (SMILES) | Duration (time from disappearance of righting reflex to recovery) (ICR mice [1]) | Incubation period (time from start of administration to disappearance of righting reflex) (ICR mice [1]) | minimal effective dose (ICR mice [2]) | Lethal dose (dose causing animal death) (ICR mice [2]) | Treatment window (lethal dose/effective dose) (ICR mice [2]) |
| --- | --- | --- | --- | --- | --- |
| COC(=O)CC[C@@H]1N=C(c2ccccn2)c2cc(C(F)(F)F)c(C)cc2-n2c(C)cnc21.Cc1ccc(S(=O)(=O)O)cc1 [Compound 1-8] | 8.60 min | 0.55 min | 40 mg/kg | 260 mg/kg | 6.5 |
| COC(=O)CC[C@@H]1N=C(c2ccccn2)c2cc([N+](=O)[O-])c(C)cc2-n2c(C)cnc21.Cc1ccc(S(=O)(=O)O)cc1 [Compound 1-7] | 8.39 min | 0.60 min | 40 mg/kg | 240 mg/kg | 6 |
| COC(=O)CC[C@@H]1N=C(c2ccccn2)c2cc(OC)c(F)cc2-n2c(C)cnc21.Cc1ccc(S(=O)(=O)O)cc1 [Compound 1-15] | 9.02 min | 0.54 min | 60 mg/kg | 320 mg/kg | 5.3 |
| COC(=O)CC[C@@H]1N=C(c2ccccn2)c2cc(Cl)c(Cl)cc2-n2c(C)cnc21.Cc1ccc(S(=O)(=O)O)cc1 [Compound 1-12] | 8.35 min | 0.42 min | 60 mg/kg | 300 mg/kg | 5 |
| CCOC(=O)CC[C@@H]1N=C(c2cccnc2)c2cc(C)c(F)cc2-n2c(C)cnc21.Cc1ccc(S(=O)(=O)O)cc1 [Compound 1-16] | 9.35 min | 0.86 min | 40 mg/kg | 280 mg/kg | 7 |
| COC(=O)CC[C@@H]1N=C(c2ccccn2)c2cc(C)c(C)cc2-n2c(C)cnc21.Cc1ccc(S(=O)(=O)O)cc1 [Compound 1-13] |  |  | 80 mg/kg | 320 mg/kg | 4 |
| COC(=O)CC[C@@H]1N=C(c2cccnc2)c2cc(F)c(C(F)(F)F)cc2-n2c(C)cnc21.Cc1ccc(S(=O)(=O)O)cc1 [Compound 1-14] | 6.30 min | 0.58 min | 100 mg/kg | 360 mg/kg | 3.6 |
| COC(=O)CC[C@@H]1N=C(c2ccccn2)c2cc(OC)c(C)cc2-n2c(C)cnc21.Cc1ccc(S(=O)(=O)O)cc1 [Compound 1-9] | 8.77 min | 0.63 min | 60 mg/kg | 260 mg/kg | 4.3 |
| COC(=O)CC[C@@H]1N=C(c2ccccn2)c2cc(Br)c(C)cc2-n2c(C)cnc21.Cc1ccc(S(=O)(=O)O)cc1 [Compound 1-6] | 7.98 min | 0.47 min | 100 mg/kg | 380 mg/kg | 3.8 |
| COC(=O)CC[C@@H]1N=C(c2ccccn2)c2cc(F)c(C)cc2-n2c(C)cnc21.O=S(=O)(O)c1ccccc1 [Compound 1-1] | 7.00 min | 0.35 min | 60 mg/kg | 320 mg/kg | 5.3 |
| COC(=O)CC[C@@H]1N=C(c2cccnc2)c2cc(F)c(C)cc2-n2c(C)cnc21.Cc1ccc(S(=O)(=O)O)cc1 [Compound 1-4] | 9.32 min | 0.37 min | 80 mg/kg | 280 mg/kg | 3.5 |
| COC(=O)CC[C@@H]1N=C(c2ccccn2)c2cc(OC)c(OC)cc2-n2c(C)cnc21.Cc1ccc(S(=O)(=O)O)cc1 [Compound 1-10] | 7.86 min | 0.48 min | 80 mg/kg | 300 mg/kg | 3.75 |
| COC(=O)CC[C@@H]1N=C(c2ccccn2)c2cc(F)c(F)cc2-n2c(C)cnc21.Cc1ccc(S(=O)(=O)O)cc1 [Compound 1-11] | 7.28 min | 0.53 min | 80 mg/kg | 320 mg/kg | 4 |
| CCOC(=O)CC[C@@H]1N=C(c2ccccn2)c2cc(CC)c(OC)cc2-n2c(C)cnc21.Cc1ccc(S(=O)(=O)O)cc1 [Compound 1-17] | 7.24 min | 0.75 min | 80 mg/kg | 360 mg/kg | 4.5 |
| COC(=O)CC[C@@H]1N=C(c2ccccn2)c2cc(F)c(C)cc2-n2c(C)cnc21.Cl [Compound 1-3] | 7.20 min | 0.30 min | 60 mg/kg | 280 mg/kg | 4.67 |
| COC(=O)CC[C@@H]1N=C(c2ccncc2)c2cc(F)c(C)cc2-n2c(C)cnc21.Cc1ccc(S(=O)(=O)O)cc1 [Compound 1-5] | 8.21 min | 0.40 min | 60 mg/kg | 320 mg/kg | 5.3 |
